Source: patent publication US20100093678A1, “Compositions and methods of the treatment of obesity and osteoporosis” (THE UNIVERSITY OF GEORGIA RESEARCH FOUNDATION, INC, priority 2008, published 2010)
Where “and” joins values, the source holds several entries; their conditions need not be identical. Equal entries are not always repeated.

Assays:
FXR = test: Western blot, FXR expression in maturing 3T3-L1 preadipocytes; format: cell-based, mouse; settings: for increase in FXR levels: 3.12 μM GS
Method: (§1) The protein concentration was determined by BCA assay with bovine serum albumin as the standard. Western blot analysis was performed using the commercial NUPAGE system (Novex/Invitrogen), in which a lithium dodecyl sulfate sample buffer (Tris/glycerol buffer, pH 8.5) was mixed with fresh dithiothreitol and added to samples.
(§2) Measurement of signal intensity on PVDF membranes after Western blotting with various antibodies was performed using a Fluor Chem densitomer with the Alpha-EaseFC image processing and analysis software (Alpha Innotech Corp.). For statistical analysis, all data were expressed as integrated density values (IDV), which were calculated as the density values of the specific protein bands/b-actin density values and expressed as percentage of the control. All figures showing quantitative analysis include data from at least three independent experiments.

[1] = test system: maturing 3T3-L1 preadipocytes; test: Apoptosis assay (ApoStrand ssDNA ELISA) in maturing preadipocytes; format: cell-based, mouse; settings: 0.5 nM 1,25(OH)2D3, 3.12 μM GS, alone or combined
Method: (§3) 3T3-L1 mouse embryo fibroblasts were obtained from American Type Culture Collection (Manassas, Va.) and were cultured as described elsewhere. Briefly, cells were cultured in DMEM containing 10% bovine calf serum until confluent. Two days after confluence, the cells were stimulated to differentiate with DMEM containing 10% fetal bovine serum (FBS), 167 nM insulin, […], and 1 μM dexamethasone for 2 days. On day 2, differentiation medium was replaced with 10% FBS/DMEM containing 167 nM insulin and incubated for 2 days, followed by culturing with 10% FBS/DMEM for an additional 4 days, at which time >90% of cells were mature adipocytes with accumulated fat droplets. All media contained 1% penicillin streptomycin (10,000 U/ml) and 1% (v/v) 100 mM pyruvate. Cells were maintained at 37° C. in a humidified 5% CO2 atmosphere.
Apoptosis assay. For measuring the extent of apoptosis, the ApoStrand ELISA Apoptosis Detection Kit (Biomol, Plymouth Meeting, Pa.) was used. Cells were grown in 96-well plates and incubated with either vehicle or test reagents for the indicated time periods. Cells were then fixed and assayed as per the manufacturer's instructions. The assay selectively detects single-stranded DNA, which occurs in apoptotic cells but not in necrotic cells or cells with DNA breaks in the absence of apoptosis.

aP2 = test: Western blot, aP2 expression in maturing 3T3-L1 preadipocytes; format: cell-based, mouse; settings: 0.5 nM 1,25(OH)2D3, 3.12 μM GS, alone or combined; days 0-6; vs control
Method: as §1, §2

[2] = test system: human mesenchymal stem cells (hMSC); test: Osteogenic differentiation of hMSC (ALP activity, calcium deposition, Alizarin red S); format: cell-based; settings: for alp activity: FIG. 8D, osteogenic conditions; for osteogenesis: hMSC cultured under osteogenic conditions; for increased calcium deposition: pretreatment, day 17, XN 5 μM, cGS varying doses
Method: Alkaline phosphatase activity (ALP/protein) was measured on day 8. Means that are not denoted with a common letter are different (p<0.001).
(§4) In these further examples, post confluent hMSC were treated with varying doses of cGS or XN in adipogenic induction medium, and lipid deposition and cell viability were measured. Alternatively, pre-confluent hMSC were pre-treated with varying doses of cGS or XN for 3 days prior to addition of osteogenic induction medium. Alkaline phosphatase (ALP) activity was determined 3 days post-induction and indices of mineralization (calcium deposition and Alizarin red S stain) were determined 14-28 days post-induction. […] Inhibition was dose-dependent with ˜50% inhibition observed with 6.5 μM cGS and 0.75 μM XN, respectively. Pretreatment with cGS stimulated osteogenic differentiation in hMSC cultures as indicated by increased ALP activity at day 3 (˜10%; P<0.05) and calcium deposition at day 17 (˜35-60%; P<0.05). Pretreatment with 5 μM XN increased calcium deposition (33%; P<0.05) at day 17.

PPARγ = test: Western blot, PPARγ expression in maturing 3T3-L1 preadipocytes; format: cell-based, mouse; settings: 0.5 nM 1,25(OH)2D3, 3.12 μM GS, alone or combined; days 0-6; vs control
Method: as §1, §2

C/EBPα = test: Western blot, C/EBPα expression in maturing 3T3-L1 preadipocytes; format: cell-based, mouse; settings: 0.5 nM 1,25(OH)2D3, 3.12 μM GS, alone or combined; days 0-6; vs control
Method: as §1, §2

[3] = test system: maturing 3T3-L1 preadipocytes; test: Quantification of lipid content (AdipoRed/Nile Red) in maturing preadipocytes; format: cell-based, mouse; settings: 0.5 nM 1,25(OH)2D3 (D0.5), 3.12 μM GS (GS3.12), alone or combined; treated during adipogenic phase, measured day 6
Method: as §3
Lipid content was quantified using commercially available AdipoRed™ Assay Reagent. In brief, maturing adipocytes grown in 96-well plates were incubated with vehicle or test compounds during the adipogenic phase and on day 6, culture supernatant was removed and lipid content was quantified by performing AdipoRed™ assay as per the manufacturer's instructions. Treated cells were also stained with Oil Red O and hematoxylin as described by Suryawan and Hu to visualize the lipid content. […]

[4] = test system: human mesenchymal stem cells (hMSC); test: Cell viability in hMSC adipogenic cultures; format: cell-based; settings: adipogenic conditions; varying doses of cGS; XN 1.5-12 μM
Method: (§5) In these further examples, post confluent hMSC were treated with varying doses of cGS or XN in adipogenic induction medium, and lipid deposition and cell viability were measured. Alternatively, pre-confluent hMSC were pre-treated with varying doses of cGS or XN for 3 days prior to addition of osteogenic induction medium. Alkaline phosphatase (ALP) activity was determined 3 days post-induction and indices of mineralization (calcium deposition and Alizarin red S stain) were determined 14-28 days post-induction. […] P<0.05). Pretreatment with 5 μM XN increased calcium deposition (33%; P<0.05) at day 17.

[5] = test system: human mesenchymal stem cells (hMSC); test: Cell viability in hMSC osteogenic cultures; format: cell-based; settings: osteogenic conditions; varying doses of cGS; XN 20 μM
Method: as §5

[6] = test system: human mesenchymal stem cells (hMSC); test: Lipid deposition / adipogenesis in hMSC under adipogenic conditions; format: cell-based; settings: for adipogenesis (lipid accumulation): hMSC cultured under adipogenic conditions
Method: Cells were cultured in adipogenic induction medium and treated with control or the combination of R+Q+G (15 μM each). After 18 days adipogenesis was measured and expressed as % control. […] Means that are not denoted with a common letter are different p<0.05.
as §4

[7] = test system: maturing 3T3-L1 preadipocytes; test: Cell viability assay (CellTiter 96) in maturing preadipocytes; format: cell-based, mouse; settings: 0.5 nM 1,25(OH)2D3, 3.12 μM GS, alone or combined; 6 days during adipogenesis
Method: as §3
Tests were performed in 96-well plates. Two day postconfluent preadipocytes were treated with differentiation medium containing either vehicle or test compounds for 6 days during adipogenesis. On day 6 the treatment medium was removed and the cell viability assay was performed as per the manufacturer's instructions. The absorbance was measured at 490 nm in a plate reader (μQuant Bio-Tek Instruments, Winooski, Vt.) to determine the formazan concentration, which is proportional to the number of live cells.

VDR = test: Western blot, VDR expression in maturing 3T3-L1 preadipocytes; format: cell-based, mouse; settings: any time point (day 1, 4, 6); 3.12 μM GS
Method: as §1, §2

PPARs = settings: reference [20]; cited from earlier work

Molecule | increase in apoptosis [1] | decrease in expression of aP2 (aP2) | alp activity [2] | decrease in expression of PPARγ (PPARγ) | decrease in expression of C/EBPα (C/EBPα) | decrease in lipid accumulation [3] | cell number (viability) [4] | cell number (viability) [5] | osteogenesis [2] | increased calcium deposition [2] | adipogenesis (lipid accumulation) [6] | further results
C=C1/C(=C\C=C2/CCC[C@]3(C)[C@@H]([C@H](C)CCCC(C)(C)O)CC[C@@H]23)C[C@@H](O)C[C@@H]1O [1,25(OH)2D3, 1,25-dihydroxy vitamin D3, reference compound] | 18.4±2.3% | 27.2±4.8% | significantly increased alp activity | 46.2±4.4% and 46% | 46.3±3.4% and 46% | 29.3±3.4% | – | – | – | – | – | effect on FXR levels (FXR; any time point, 0.5 nM 1,25(OH)2D3): no effect
COc1cc(O)c(CC=C(C)C)c(O)c1C(=O)/C=C/c1ccc(O)cc1 [XN, xanthohumol] | – | – | – | – | – | – | increased cell viability dose-dependently | decreased viability | promoted osteogenesis | 33% | reduced adipogenesis | inhibition at 0.75 µM ([6]; Homo sapiens, Mesenchymal stem cells, 6.5 μM cGS, 0.75 μM XN, adipogenic conditions): ~50%
O=c1c(-c2ccc(O)cc2)coc2cc(O)cc(O)c12 [genistein, 5,7-Dihydroxy-3-(4-hydroxyphenyl)chromen-4-one] | – | – | significantly increased alp activity | – | – | – | – | – | promoted osteogenesis | – | – | –
O=c1c(O)c(-c2ccc(O)c(O)c2)oc2cc(O)cc(O)c12 [quercetin, 2-(3,4-dihydroxyphenyl)-3,5,7-trihydroxy-4H-chromen-4-one] | – | – | – | – | – | – | – | – | promoted osteogenesis | – | reduced adipogenesis | –
C/C=C1\C(=O)C[C@H]2[C@@H]3CCC4=CC(=O)CC[C@]4(C)[C@H]3CC[C@]12C [GS, cis-Guggulsterone] | did not have any significant effect | did not significantly alter | – | did not significantly alter | did not significantly alter | 29.7±2.7% | dose-dependent increase | dose-dependent increase | promoted osteogenesis | 35-60% | reduced adipogenesis | decrease in cell viability [7]: did not have any significant effect; effect on FXR expression (FXR; day 1, 3.12 μM GS alone or with 0.5 nM 1,25(OH)2D3): did not have any significant effect; increase in FXR levels (FXR; day 4): 30.6±9.3%; increase in FXR levels (FXR; day 6): 64.8±10%; increased ALP activity ([2]; pretreatment 3 days before osteogenic induction, day 3 post-induction): ~10%; effect on VDR expression (VDR): did not significantly alter; interaction with PPARs (PPARs): did not interact; inhibition of lipid deposition ([6]; 6.5 μM cGS, 0.75 μM XN, adipogenic conditions): ~50%
vitamin D [reference compound] | – | – | – | – | – | – | – | – | promoted osteogenesis | – | – | –
